In patent US10550099B2 (FORMA Therapeutics, Inc., priority 2014, dated 2020):
Read-outs that look alike come from different tables or passages of the source.

What was measured:
[1] = target: IDH1-R132H recombinant protein (Homo sapiens (Human), UniProt O75874, R132H); test: IDH1-R132H enzymatic assay (diaphorase/resazurin readout of NADPH consumption); assay type: biochemical; conditions: IDH1-R132H enzyme; read-out: Enzyme IDH1 R132H IC50 (Range)
Method: (§1) Assays were performed in a 384-well black plate. An aliquot of 250 nL of compound was incubated with 10 μL of 30 nM IDH1-R132H or 10 nM IDH1-R132C recombinant protein in assay buffer (50 mM Tris pH=7.5, 150 mM NaCl, 5 mM MgCl2, 0.1% (w/v) Bovine Serum Albumin, and 0.01% Triton X-100) in each well at 25° C. for 15 minutes. After the plate was centrifuged briefly, an aliquot of 10 μL of 2 mM α-ketoglutarate and 20 μM NADPH solution prepared in assay buffer was then added to each well and the reaction was maintained at 25° C. for 45 minutes. An aliquot of 10 μL of diaphorase solution (0.15 U/mL diaphorase and 30 μM Resazurin in assay buffer) was added to each well. The plate was maintained at 25° C. for 15 minutes and then read on a plate reader with excitation and emission wavelengths at 535 nm and 590 nm, respectively. The IC50 of a given compound was calculated by fitting the dose response curve of inhibition of NADPH consumption at a given concentration with the four parameter logistic equation.

[2] = target: IDH1-R132C recombinant protein (Homo sapiens (Human), UniProt O75874, R132C); test: IDH1-R132C enzymatic assay (diaphorase/resazurin readout of NADPH consumption); assay type: biochemical; conditions: IDH1-R132C enzyme; read-out: Enzyme IDH1 R132C IC50 (Range)
IDH1-R132C recombinant protein, sequence (O75874 whole entry R132C): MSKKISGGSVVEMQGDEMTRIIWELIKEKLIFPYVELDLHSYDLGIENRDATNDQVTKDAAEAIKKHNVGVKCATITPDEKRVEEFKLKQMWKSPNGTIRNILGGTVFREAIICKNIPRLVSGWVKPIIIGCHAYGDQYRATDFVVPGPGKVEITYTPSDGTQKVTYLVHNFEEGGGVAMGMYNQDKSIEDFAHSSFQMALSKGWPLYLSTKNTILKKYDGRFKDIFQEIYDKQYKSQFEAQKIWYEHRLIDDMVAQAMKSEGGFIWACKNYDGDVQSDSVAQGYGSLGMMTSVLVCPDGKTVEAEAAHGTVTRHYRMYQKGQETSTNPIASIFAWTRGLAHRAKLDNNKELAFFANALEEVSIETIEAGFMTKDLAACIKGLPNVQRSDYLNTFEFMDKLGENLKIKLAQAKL
Method: as §1

[3] = system: HCT116 isogenic IDH1-R132H mutant cells; test: Cellular 2-HG assay using HCT116 mutant IDH1 cells (IDH1-R132H), RapidFire mass spectrometry; assay type: cell-based
Method: (§2) Example 106—Cellular 2-HG Assay Using HCT116 Mutant IDH1 Cells
(§3) HCT116 isogenic IDH1-R132H and IDH1-R132C mutant cells were cultured in growth media (McCoy's 5A, 10% fetal bovine serum, 1× antibiotic-antimycotic solution and 0.3 mg/mL G418) in 5% CO2 in an incubator at 37° C. To prepare the assay, cells were trypsinized and resuspended in assay media (McCoy's 5A with no L-glutamine, 10% fetal bovine serum, 1× antibiotic-antimycotic solution and 0.3 mg/mL G418). An aliquot of 10,000 cells/100 μL was transferred to each well of a clear 96-well tissue culture plate. The cells were incubated in 5% CO2 at 37° C. in an incubator overnight to allow for proper cell attachment. An aliquot of 50 μL of compound containing assay media were then added to each well and the assay plate was kept in 5% CO2 at 37° C. in an incubator for 24 hours. The media was then removed from each well and 150 μL of a methanol/water mixture (80/20 v/v) was added to each well. The plates were kept at −80° C. freezer overnight to allow for complete cell lysis. An aliquot of 125 μL of extracted supernatant was analyzed by RapidFire high-throughout-mass spectrometry (Agilent) to determine the cellular 2-HG level. The IC50 of a given compound was calculated by fitting the dose response curve of cellular 2-HG inhibition at a given concentration with the four parameter logistic equation.

[4] = system: HCT116 isogenic IDH1-R132C mutant cells; test: Cellular 2-HG assay using HCT116 mutant IDH1 cells (IDH1-R132C), RapidFire mass spectrometry; assay type: cell-based
Method: as §2, §3

[5] = Homo sapiens, HCT-116, read-out: HCT116 IDH1 R132H IC50 (Range)
[6] = Homo sapiens, HCT-116, read-out: HCT116 IDH1 R132C IC50 (Range)

IDH1-R132H recombinant protein, sequence (O75874 whole entry R132H): as the sequence (O75874 whole entry R132C) above, with C132H counted along it

IC50 [1] [nM] | IC50 [2] [nM] | IC50 [3, 5] [nM] | IC50 [4, 6] [nM] | SMILES | IC50 ([3]; read-out: HCT116 IDH1 R132H IC50 (Range)) [nM] | IC50 ([4]; read-out: HCT116 IDH1 R132C IC50 (Range)) [nM]
100 to 1000 | 1000 to 10000 | 1000 to 10000 | 100 to 1000 | Cc1[nH]ncc1-c1ccnc(N[C@@H](C)c2cc3cc(Cl)ccc3[nH]c2=O)n1 [I-83] | – | –
100 to 1000 | 100 to 1000 | 100 to 1000 | 100 to 1000 | CC(C)Cn1nccc1-c1ccnc(N[C@@H](C)c2cc3cc(Cl)ccc3[nH]c2=O)n1 [I-85] | – | –
– | > 10000 | – | – | COC(=O)C(c1ccnc(N[C@@H](C)c2cc3cc(Cl)ccc3[nH]c2=O)n1)S(C)(=O)=O (stereo partly shown) [I-134] | – | –

SMILES | IC50 [1] [nM] | IC50 [2] [nM] | IC50 [3, 5] [nM] | IC50 [4, 6] [nM] | IC50 ([3]; read-out: HCT116 IDH1 R132H IC50 (Range)) [nM] | IC50 ([4]; read-out: HCT116 IDH1 R132C IC50 (Range)) [nM]
COc1nc(N[C@H](C)c2nc3cc(Cl)ccc3[nH]c2=O)ncc1C#N [I-157] | 100 to 1000 | 1000 to 10000 | – | – | < 100 | 100 to 1000
